Experimental data from patent US4904669A, “Thiazolo/4,5-c/quinolines as major tranquilizers” (EGIS Gyogyszergyar, priority 1985, dated 1990).

Tests used:
[1] = tested on: conditioned reflex (CR) / unconditioned reflex (UR); assay: Screening test, learning and retention during one session conditioning; assay type: in vivo, rats; details: 10 mg/kg
Procedure: I was elaborated for studing learning and retention of rats during one session conditioning.
During conditioning rats are trained to jump onto the top of glass cylinder by the electric foot-shock (110 V). The escape reaction (unconditioned reflex, UR) is paired with a bell as conditioned stimulus. The criterion of learning is that conditioned reflex (CR) should be elicited 10 times with 10 s intervals without reinforcement. Retention of CR is taken positive when 24 h following the experiment CR can be elicited. In these experiments animals are distributed into 4 categories on the basis of their learning ability.

[2] = tested on: conditioned avoidance reflex (CAR); assay: Shuttle-box, acquisition of two-way conditioned avoidance reflex (CAR); assay type: in vivo
Procedure: The acquisition of a two-way conditioned avoidance reflex (CAR) was analyzed in the shuttle-box during 5 consecutive days.
The instrument was constructed by the Research Institute for Electrical Industry (Hungary). It consists of six boxes, each is separated inside by a barrier with a small gate in the middle. […] They were given 100 trials per day. One trial consisted of 15 s intertrial interval, followed by 15 s CS. The last 5 s of CS overlapped the […]. At each learning session the number of CAR and intersignal reactions (IR) was automatically counted and evaluated by multiway analysis of variance (ANOVA).

[3] = tested on: Benzodiazepine (BZD) receptor; assay: Benzodiazepine (BZD) receptor binding, displacement of 3H-diazepam; details: crude cortical membrane, 1 hr at 0° C., pH 6.8; control drug
Procedure: 10. For the Studies of Benzodiazepine (BZD) Receptor Binding crude cortical membrane preparation was used. 2/ μM ^3 H-diazepam was incubated with the membrane for 1 hr at 0° C. in TRIS-citrate buffer, pH 6.8. Specific binding was determined in the presence of 10/ μM diazepam. In displacement studies chlordiazepoxid was used as control drug.

[4] = Acute toxicity (Litchfield and Wilcoxon); details: rat, in vivo, deaths within 48 h
[5] = tested on: pain reactions; assay: Hot plate test; assay type: in vivo, rats; details: Rattus norvegicus, 56° C. plate, 1 h after administration
Procedure: The method of Woolfe and McDonald (1944) modified by Porszasz and Herr (1950) was used. The effect of each dose of the drugs was checked on a group of 10 rats. The experiments were performed on metal plates maintained at 56° C. The latency time of pain reactions was determined prior to and 1 h after the administration of the test compound. It was regarded as 100% effect if the reaction time was prolonged by more than 2.5 times the control value.

[6] = tested on: writhing; assay: Writhing test (peritoneal), acetic acid; assay type: in vivo; details: Mus musculus, mice, acetic acid i.p.
Procedure: The method originally described by […] (1956) for rats modified by Witkin et al. (1961) and Koster and Anderson (1959), respectively, for mice was applied. Each dose was administered to a group of ten mice and after 20 min. 60 mg/kg of 0.6% acetic acid solution was injected i.p. As a result of chemical irritation of the peritoneum a characteristic writhing can be observed in 90% of control animals. Ten animals treated with compounds under test were kept under observation for 20 min. following i.p. injection of acid. The analgetic effect of individual doses was expressed in per cent: [formula] The denominator was taken as 90% on the basis of preliminary control examination and the […] literature.

With `CNC1=Nc2ccc(Cl)cc2C(c2ccccc2)=[N+]([O-])C1` [Chlordiazepoxide] the “inhibition of development of conditioned reflex” value [1] was “does not influence”, the “number of negative responses (f)” value ([2]; 10 mg/kg, in words) was “increased” and the “acquisition of conditioned reflex” value ([2]; 10 and 5 mg/kg) was “unchanged”. The “intersignal reactions (IR)” value ([2]; 10 and 5 mg/kg, in words) was “unchanged”, the “intersignal reactions (IR)” value ([2]; s.c., 5 mg/kg, day 1) was 10.8 and the “negative responses (-f)” value ([2]; s.c., 5 mg/kg, day 1) was 11.8. The “positive responses (F), acquisition of conditioned reflex” value (“positive responses (F), acquisition” for short) ([2]; s.c., 5 mg/kg, day 1) was 23.1, the “intersignal reactions (IR)” value ([2]; s.c., 5 mg/kg, day 2) was 14.0 and the “negative responses (-f)” value ([2]; s.c., 5 mg/kg, day 2) was 9.1. The “positive responses (F), acquisition” value ([2]; s.c., 5 mg/kg, day 2) was 38.7, the “intersignal reactions (IR)” value ([2]; s.c., 5 mg/kg, day 3) was 8.9 and the “negative responses (-f)” value ([2]; s.c., 5 mg/kg, day 3) was 10.2. The “positive responses (F), acquisition” value ([2]; s.c., 5 mg/kg, day 3) was 35.6, the “intersignal reactions (IR)” value ([2]; s.c., 5 mg/kg, day 4) was 6.7 and the “negative responses (-f)” value ([2]; s.c., 5 mg/kg, day 4) was 14.9. The “positive responses (F), acquisition” value ([2]; s.c., 5 mg/kg, day 4) was 41.1, the “intersignal reactions (IR)” value ([2]; s.c., 5 mg/kg, day 5) was 4.2 and the “negative responses (-f)” value ([2]; s.c., 5 mg/kg, day 5) was 13.0. For the same compound, the “positive responses (F), acquisition” value ([2]; s.c., 5 mg/kg, day 5) was 50.8, the “intersignal reactions (IR)” value ([2]; s.c., 10 mg/kg, day 1) was 10.8 and the “negative responses (-f)” value ([2]; s.c., 10 mg/kg, day 1) was 32.7. The “positive responses (F), acquisition” value ([2]; s.c., 10 mg/kg, day 1) was 19.9, the “intersignal reactions (IR)” value ([2]; s.c., 10 mg/kg, day 2) was 14.7 and the “negative responses (-f)” value ([2]; s.c., 10 mg/kg, day 2) was 22.8. The “positive responses (F), acquisition” value ([2]; s.c., 10 mg/kg, day 2) was 37.9, the “intersignal reactions (IR)” value ([2]; s.c., 10 mg/kg, day 3) was 8.1 and the “negative responses (-f)” value ([2]; s.c., 10 mg/kg, day 3) was 31.8. For the same compound, the “positive responses (F), acquisition” value ([2]; s.c., 10 mg/kg, day 3) was 33.7, the “intersignal reactions (IR)” value ([2]; s.c., 10 mg/kg, day 4) was 6.3 and the “negative responses (-f)” value ([2]; s.c., 10 mg/kg, day 4) was 36.5. The “positive responses (F), acquisition” value ([2]; s.c., 10 mg/kg, day 4) was 35.6, the “intersignal reactions (IR)” value ([2]; s.c., 10 mg/kg, day 5) was 6.1 and the “negative responses (-f)” value ([2]; s.c., 10 mg/kg, day 5) was 40.8. The “positive responses (F), acquisition” value ([2]; s.c., 10 mg/kg, day 5) was 41.2, the “intersignal reactions (IR)” value ([2]; s.c., 25 mg/kg, day 1) was 6.8 and the “negative responses (-f)” value ([2]; s.c., 25 mg/kg, day 1) was 74.0. For the same compound, the “positive responses (F), acquisition” value ([2]; s.c., 25 mg/kg, day 1) was 9.7, the “intersignal reactions (IR)” value ([2]; s.c., 25 mg/kg, day 2) was 7.3 and the “negative responses (-f)” value ([2]; s.c., 25 mg/kg, day 2) was 67.5. The “positive responses (F), acquisition” value ([2]; s.c., 25 mg/kg, day 2) was 12.2, the “intersignal reactions (IR)” value ([2]; s.c., 25 mg/kg, day 3) was 6.2 and the “negative responses (-f)” value ([2]; s.c., 25 mg/kg, day 3) was 67.0. For the same compound, the “positive responses (F), acquisition” value ([2]; s.c., 25 mg/kg, day 3) was 17.9, the “intersignal reactions (IR)” value ([2]; s.c., 25 mg/kg, day 4) was 8.2 and the “negative responses (-f)” value ([2]; s.c., 25 mg/kg, day 4) was 65.6. The “positive responses (F), acquisition” value ([2]; s.c., 25 mg/kg, day 4) was 20.0, the “intersignal reactions (IR)” value ([2]; s.c., 25 mg/kg, day 5) was 6.0 and the “negative responses (-f)” value ([2]; s.c., 25 mg/kg, day 5) was 59.8. The “positive responses (F), acquisition” value ([2]; s.c., 25 mg/kg, day 5) was 21.4 and the “displacement of 3H-diazepam on the receptor” value [3] was “displaced ^3 H-diazepam on the receptor in concentration dependent manner”.
Work on `c1ccc2c(c1)ncc1ncsc12` [Thiazolo[4,5-c]quinoline-ethanesulfonate, thiazolo[4,5-c]quinoline-ethanesulfonate] yielded an LD50 at 48 h ([4]; iv) of 51 mg/kg, an LD50 at 48 h ([4]; po, starved 16 h) of 290 mg/kg and an LD50 at 48 h ([4]; sc) of 280 mg/kg. It also gave an ED50 ([5]; po) of 72 mg/kg, an ED50 ([5]; sc) of 8 mg/kg and an ED50 ([6]; po) of 70 mg/kg. The ED50 ([6]; sc) was 56 mg/kg, the “intersignal reactions (IR)” value ([2]; s.c., 10 mg/kg, day 1) was 6.5 and the “negative responses (-f)” value ([2]; s.c., 10 mg/kg, day 1) was 17.2. The “positive responses (F), acquisition” value ([2]; s.c., 10 mg/kg, day 1) was 23.5, the “intersignal reactions (IR)” value ([2]; s.c., 10 mg/kg, day 2) was 8.8 and the “negative responses (-f)” value ([2]; s.c., 10 mg/kg, day 2) was 7.1. For the same compound, the “positive responses (F), acquisition” value ([2]; s.c., 10 mg/kg, day 2) was 44.2, the “intersignal reactions (IR)” value ([2]; s.c., 10 mg/kg, day 3) was 5.5 and the “negative responses (-f)” value ([2]; s.c., 10 mg/kg, day 3) was 2.4. For the same compound, the “positive responses (F), acquisition” value ([2]; s.c., 10 mg/kg, day 3) was 51.6, the “intersignal reactions (IR)” value ([2]; s.c., 10 mg/kg, day 4) was 8.2 and the “negative responses (-f)” value ([2]; s.c., 10 mg/kg, day 4) was 1.2. For the same compound, the “positive responses (F), acquisition” value ([2]; s.c., 10 mg/kg, day 4) was 66.8, the “intersignal reactions (IR)” value ([2]; s.c., 10 mg/kg, day 5) was 6.3 and the “negative responses (-f)” value ([2]; s.c., 10 mg/kg, day 5) was 6.2. For the same compound, the “positive responses (F), acquisition” value ([2]; s.c., 10 mg/kg, day 5) was 65.1, the “intersignal reactions (IR)” value ([2]; s.c., 25 mg/kg, day 1) was 11.1 and the “negative responses (-f)” value ([2]; s.c., 25 mg/kg, day 1) was 70.3. The “positive responses (F), acquisition” value ([2]; s.c., 25 mg/kg, day 1) was 8.1, the “intersignal reactions (IR)” value ([2]; s.c., 25 mg/kg, day 2) was 8.8 and the “negative responses (-f)” value ([2]; s.c., 25 mg/kg, day 2) was 41.8. For the same compound, the “positive responses (F), acquisition” value ([2]; s.c., 25 mg/kg, day 2) was 25.3, the “intersignal reactions (IR)” value ([2]; s.c., 25 mg/kg, day 3) was 7.0 and the “negative responses (-f)” value ([2]; s.c., 25 mg/kg, day 3) was 40.4. The “positive responses (F), acquisition” value ([2]; s.c., 25 mg/kg, day 3) was 23.3, the “intersignal reactions (IR)” value ([2]; s.c., 25 mg/kg, day 4) was 10.3 and the “negative responses (-f)” value ([2]; s.c., 25 mg/kg, day 4) was 46.3. The “positive responses (F), acquisition” value ([2]; s.c., 25 mg/kg, day 4) was 30.8, the “intersignal reactions (IR)” value ([2]; s.c., 25 mg/kg, day 5) was 4.0 and the “negative responses (-f)” value ([2]; s.c., 25 mg/kg, day 5) was 61.3. The “positive responses (F), acquisition” value ([2]; s.c., 25 mg/kg, day 5) was 15.5, the “intersignal reactions (IR)” value ([2]; s.c., 50 mg/kg, day 1) was 9.2 and the “negative responses (-f)” value ([2]; s.c., 50 mg/kg, day 1) was 66.8. The “positive responses (F), acquisition” value ([2]; s.c., 50 mg/kg, day 1) was 8.9, the “intersignal reactions (IR)” value ([2]; s.c., 50 mg/kg, day 2) was 7.1 and the “negative responses (-f)” value ([2]; s.c., 50 mg/kg, day 2) was 35.2. The “positive responses (F), acquisition” value ([2]; s.c., 50 mg/kg, day 2) was 24.5, the “intersignal reactions (IR)” value ([2]; s.c., 50 mg/kg, day 3) was 4.2 and the “negative responses (-f)” value ([2]; s.c., 50 mg/kg, day 3) was 51.5. For the same compound, the “positive responses (F), acquisition” value ([2]; s.c., 50 mg/kg, day 3) was 20.8, the “intersignal reactions (IR)” value ([2]; s.c., 50 mg/kg, day 4) was 3.3 and the “negative responses (-f)” value ([2]; s.c., 50 mg/kg, day 4) was 61.8. The “positive responses (F), acquisition” value ([2]; s.c., 50 mg/kg, day 4) was 14.6, the “intersignal reactions (IR)” value ([2]; s.c., 50 mg/kg, day 5) was 2.6 and the “negative responses (-f)” value ([2]; s.c., 50 mg/kg, day 5) was 72.8. For the same compound, the “positive responses (F), acquisition” value ([2]; s.c., 50 mg/kg, day 5) was 16.2.
